Species on record: Rattus norvegicus
Assay: DrugMatrix - Regimen: Daily Repeat
Assay type: toxicity, organism-based, Sprague-Dawley
Design: regimen Daily Repeat, gender Male, age 6-8 weeks
Conditions: in vivo, po, route oral GAVAGE, vehicle .5 % CMC; for ABSOLUTE BASOPHIL / ABSOLUTE EOSINOPHIL / ABSOLUTE LYMPHOCYTE / ABSOLUTE MONOCYTE / ABSOLUTE SEGMENTED NEUTROPHIL / BASOPHIL / EOSINOPHIL / ERYTHROCYTE COUNT / HEMATOCRIT / HEMOGLOBIN / LEUKOCYTE COUNT / LYMPHOCYTE / MEAN CORPUSCULAR HEMOGLOBIN / MEAN CORPUSCULAR HEMOGLOBIN CONCENTRATION / MEAN CORPUSCULAR VOLUME / MONOCYTE / NEUTROPHIL / NUCLEATED RED BLOOD CELLS / PLATELET COUNT: tissue Blood; for ALANINE AMINOTRANSFERASE / ALBUMIN / ALKALINE PHOSPHATASE / ASPARTATE AMINOTRANSFERASE / BLOOD UREA NITROGEN / CARBON DIOXIDE / CHLORIDE / CHOLESTEROL / CREATINE PHOSPHOKINASE / CREATININE / GLUCOSE / LACTATE DEHYDROGENASE / LIPASE / PHOSPHORUS / POTASSIUM / SODIUM / TOTAL BILIRUBIN / TOTAL PROTEIN / URIC ACID: tissue Plasma
[1] = 200 mg/kg, 72 h, dose level Low, time 3 day
[2] = 200 mg/kg, 120 h, dose level Low, time 5 day
[3] = 1200 mg/kg, 72 h, dose level High, time 3 day
[4] = 1200 mg/kg, 120 h, dose level High, time 5 day

Structure (SMILES): COc1cc(C(=O)NC2CCCNC2)cc(OC)c1OC (configuration not stated) [TROXIPIDE]
- ABSOLUTE BASOPHIL [1]: 0 CELLS/uL
- ABSOLUTE EOSINOPHIL [1]: 136.33 CELLS/uL
- ABSOLUTE LYMPHOCYTE [1]: 11684 CELLS/uL
- ABSOLUTE MONOCYTE [1]: 203.67 CELLS/uL
- ABSOLUTE SEGMENTED NEUTROPHIL [1]: 809.33 CELLS/uL
- BASOPHIL [1]: 0%
- EOSINOPHIL [1]: 1%
- ERYTHROCYTE COUNT [1]: 5.48 x10E6/uL
- HEMATOCRIT [1]: 34.2%
- HEMOGLOBIN [1]: 12.97 G/DL
- LEUKOCYTE COUNT [1]: 12.83 x10E3/uL
- LYMPHOCYTE [1]: 91%
- MEAN CORPUSCULAR HEMOGLOBIN [1]: 23.67 pg
- MEAN CORPUSCULAR HEMOGLOBIN CONCENTRATION [1]: 37.9 G/DL
- MEAN CORPUSCULAR VOLUME [1]: 62.43 fL
- MONOCYTE [1]: 1.67%
- NEUTROPHIL [1]: 6.33%
- NUCLEATED RED BLOOD CELLS [1]: 0.33 /100WBC
- PLATELET COUNT [1]: 1247.33 x10E3/uL
- ALANINE AMINOTRANSFERASE [1]: 38.67 u/L
- ALBUMIN [1]: 4.37 G/DL
- ALKALINE PHOSPHATASE [1]: 413.67 u/L
- ASPARTATE AMINOTRANSFERASE [1]: 80 u/L
- BLOOD UREA NITROGEN [1]: 14 mg/dL
- CARBON DIOXIDE [1]: 26.33 mmol/L
- CHLORIDE [1]: 106 MEQ/L
- CHOLESTEROL [1]: 67 mg/dL
- CREATINE PHOSPHOKINASE [1]: 457.67 u/L
- CREATININE [1]: 0.16 mg/dL
- GLUCOSE [1]: 165 mg/dL
- LACTATE DEHYDROGENASE [1]: 90.67 u/L
- LIPASE [1]: 9 u/L
- PHOSPHORUS [1]: 13.6 mg/dL
- POTASSIUM [1]: 6.02 MEQ/L
- SODIUM [1]: 146.67 MEQ/L
- TOTAL BILIRUBIN [1]: 0.23 mg/dL
- TOTAL PROTEIN [1]: 5.87 G/DL
- URIC ACID [1]: 1.57 mg/dL
- ABSOLUTE BASOPHIL [2]: 0 CELLS/uL
- ABSOLUTE EOSINOPHIL [2]: 142.33 CELLS/uL
- ABSOLUTE LYMPHOCYTE [2]: 13091.33 CELLS/uL
- ABSOLUTE MONOCYTE [2]: 94.33 CELLS/uL
- ABSOLUTE SEGMENTED NEUTROPHIL [2]: 905.33 CELLS/uL
- BASOPHIL [2]: 0%
- EOSINOPHIL [2]: 1%
- ERYTHROCYTE COUNT [2]: 5.5 x10E6/uL
- HEMATOCRIT [2]: 35.17%
- HEMOGLOBIN [2]: 13.37 G/DL
- LEUKOCYTE COUNT [2]: 14.23 x10E3/uL
- LYMPHOCYTE [2]: 92%
- MEAN CORPUSCULAR HEMOGLOBIN [2]: 24.33 pg
- MEAN CORPUSCULAR HEMOGLOBIN CONCENTRATION [2]: 38.03 G/DL
- MEAN CORPUSCULAR VOLUME [2]: 63.97 fL
- MONOCYTE [2]: 0.67%
- NEUTROPHIL [2]: 6.33%
- NUCLEATED RED BLOOD CELLS [2]: 0 /100WBC
- PLATELET COUNT [2]: 1300.67 x10E3/uL
- ALANINE AMINOTRANSFERASE [2]: 40.33 u/L
- ALBUMIN [2]: 4.33 G/DL
- ALKALINE PHOSPHATASE [2]: 383 u/L
- ASPARTATE AMINOTRANSFERASE [2]: 84.33 u/L
- BLOOD UREA NITROGEN [2]: 16.67 mg/dL
- CARBON DIOXIDE [2]: 24.67 mmol/L
- CHLORIDE [2]: 109 MEQ/L
- CHOLESTEROL [2]: 69 mg/dL
- CREATINE PHOSPHOKINASE [2]: 241.67 u/L
- CREATININE [2]: 0.18 mg/dL
- GLUCOSE [2]: 177.67 mg/dL
- LACTATE DEHYDROGENASE [2]: 230 u/L
- LIPASE [2]: 9 u/L
- PHOSPHORUS [2]: 14 mg/dL
- POTASSIUM [2]: 5.49 MEQ/L
- SODIUM [2]: 147.33 MEQ/L
- TOTAL BILIRUBIN [2]: 0.23 mg/dL
- TOTAL PROTEIN [2]: 6.57 G/DL
- URIC ACID [2]: 1.8 mg/dL
- ABSOLUTE BASOPHIL [3]: 0 CELLS/uL
- ABSOLUTE EOSINOPHIL [3]: 0 CELLS/uL
- ABSOLUTE LYMPHOCYTE [3]: 8315.67 CELLS/uL
- ABSOLUTE MONOCYTE [3]: 238.67 CELLS/uL
- ABSOLUTE SEGMENTED NEUTROPHIL [3]: 579 CELLS/uL
- BASOPHIL [3]: 0%
- EOSINOPHIL [3]: 0%
- ERYTHROCYTE COUNT [3]: 5.66 x10E6/uL
- HEMATOCRIT [3]: 34.93%
- HEMOGLOBIN [3]: 13.13 G/DL
- LEUKOCYTE COUNT [3]: 9.13 x10E3/uL
- LYMPHOCYTE [3]: 91%
- MEAN CORPUSCULAR HEMOGLOBIN [3]: 23.23 pg
- MEAN CORPUSCULAR HEMOGLOBIN CONCENTRATION [3]: 37.6 G/DL
- MEAN CORPUSCULAR VOLUME [3]: 61.73 fL
- MONOCYTE [3]: 2.33%
- NEUTROPHIL [3]: 6.67%
- NUCLEATED RED BLOOD CELLS [3]: 0 /100WBC
- PLATELET COUNT [3]: 1475 x10E3/uL
- ALANINE AMINOTRANSFERASE [3]: 56 u/L
- ALBUMIN [3]: 4.5 G/DL
- ALKALINE PHOSPHATASE [3]: 344 u/L
- ASPARTATE AMINOTRANSFERASE [3]: 88 u/L
- BLOOD UREA NITROGEN [3]: 12.67 mg/dL
- CARBON DIOXIDE [3]: 27.67 mmol/L
- CHLORIDE [3]: 106.33 MEQ/L
- CHOLESTEROL [3]: 80.33 mg/dL
- CREATINE PHOSPHOKINASE [3]: 209.33 u/L
- CREATININE [3]: 0.21 mg/dL
- GLUCOSE [3]: 138.33 mg/dL
- LACTATE DEHYDROGENASE [3]: 178 u/L
- LIPASE [3]: 8.67 u/L
- PHOSPHORUS [3]: 11.63 mg/dL
- POTASSIUM [3]: 6.42 MEQ/L
- SODIUM [3]: 150.7 MEQ/L
- TOTAL BILIRUBIN [3]: 0.2 mg/dL
- TOTAL PROTEIN [3]: 6.4 G/DL
- URIC ACID [3]: 1.2 mg/dL
- ABSOLUTE BASOPHIL [4]: 0 CELLS/uL
- ABSOLUTE EOSINOPHIL [4]: 55.33 CELLS/uL
- ABSOLUTE LYMPHOCYTE [4]: 13790.67 CELLS/uL
- ABSOLUTE MONOCYTE [4]: 0 CELLS/uL
- ABSOLUTE SEGMENTED NEUTROPHIL [4]: 1154 CELLS/uL
- BASOPHIL [4]: 0%
- EOSINOPHIL [4]: 0.33%
- ERYTHROCYTE COUNT [4]: 5.99 x10E6/uL
- HEMATOCRIT [4]: 37.5%
- HEMOGLOBIN [4]: 13.97 G/DL
- LEUKOCYTE COUNT [4]: 15 x10E3/uL
- LYMPHOCYTE [4]: 92%
- MEAN CORPUSCULAR HEMOGLOBIN [4]: 23.33 pg
- MEAN CORPUSCULAR HEMOGLOBIN CONCENTRATION [4]: 37.23 G/DL
- MEAN CORPUSCULAR VOLUME [4]: 62.67 fL
- MONOCYTE [4]: 0%
- NEUTROPHIL [4]: 7.67%
- NUCLEATED RED BLOOD CELLS [4]: 0 /100WBC
- PLATELET COUNT [4]: 1467.33 x10E3/uL
- ALANINE AMINOTRANSFERASE [4]: 59.33 u/L
- ALBUMIN [4]: 4.1 G/DL
- ALKALINE PHOSPHATASE [4]: 355.33 u/L
- ASPARTATE AMINOTRANSFERASE [4]: 81.33 u/L
- BLOOD UREA NITROGEN [4]: 15.33 mg/dL
- CARBON DIOXIDE [4]: 24.33 mmol/L
- CHLORIDE [4]: 106.33 MEQ/L
- CHOLESTEROL [4]: 65.33 mg/dL
- CREATINE PHOSPHOKINASE [4]: 150 u/L
- CREATININE [4]: 0.2 mg/dL
- GLUCOSE [4]: 176 mg/dL
- LACTATE DEHYDROGENASE [4]: 88.67 u/L
- LIPASE [4]: 8.33 u/L
- PHOSPHORUS [4]: 13.83 mg/dL
- POTASSIUM [4]: 6.2 MEQ/L
- SODIUM [4]: 146.57 MEQ/L
- TOTAL BILIRUBIN [4]: 0.17 mg/dL
- TOTAL PROTEIN [4]: 6.17 G/DL
- URIC ACID [4]: 2.43 mg/dL

Reference: ChEMBL document CHEMBL3885881, “DrugMatrix”
